Results reported in patent US12344603B2 (Genentech, Inc., priority 2020, dated 2025).
Counter-ions that a name gives are not always drawn.

target: IRE1α (Homo sapiens (Human), UniProt O75460, D688N); experiment: IRE1α TR-FRET competition binding assay (IRE1α HTRF); conditions: TR-FRET competition binding to kinase domain of IRE1α
Outline: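 Kinase domain (0.25 nM) pre-bound to 2 nM Eu anti-His antibody for 1 h at 4° C in HEPES pH 7.5/MgCl2/Brij 35/DTT/gamma globulin buffer, then mixed with compounds and 2 nM Alexa 647 ATP-competitive probe. 1 h at room temperature; probe displacement read as TR-FRET (Ex 347 nm, Em 665/615 nm).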

Chain of IRE1α (O75460 547-977 D688N): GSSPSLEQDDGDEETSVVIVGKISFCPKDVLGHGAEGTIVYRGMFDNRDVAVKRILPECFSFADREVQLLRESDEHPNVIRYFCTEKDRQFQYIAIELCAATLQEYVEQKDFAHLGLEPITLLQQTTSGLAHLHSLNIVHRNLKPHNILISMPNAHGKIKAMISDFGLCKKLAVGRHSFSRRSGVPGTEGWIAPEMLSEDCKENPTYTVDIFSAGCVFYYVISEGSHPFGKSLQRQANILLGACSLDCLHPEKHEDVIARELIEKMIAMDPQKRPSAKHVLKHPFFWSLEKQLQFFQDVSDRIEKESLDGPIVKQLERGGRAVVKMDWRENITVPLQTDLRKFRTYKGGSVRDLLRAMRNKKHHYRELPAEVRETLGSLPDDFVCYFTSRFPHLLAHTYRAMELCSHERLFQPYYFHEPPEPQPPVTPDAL

IC50	SMILES
180 nM	CC(C)n1c(=O)c(-c2ccc(NS(=O)(=O)CCC(F)(F)F)c(F)c2)cc2cnc(N[C@H]3CCC[C@@H](N(C)C)C3)nc21 [Compound 114, N-(4-(2-(((1S,3R)-3-(Dimethylamino)cyclohexyl)amino)-8-isopropyl-7-oxo-7,8-dihydropyrido[2,3-d]pyrimidin-6-yl)-2-fluorophenyl)-3,3,3-trifluoropropane-1-sulfonamide]
0.15 nM	CC(C)n1c(=O)c(-c2ccc(NS(=O)(=O)CC3CCCCC3)c(F)c2)cc2cnc(N[C@H]3CC[C@H](N(C)C)CC3)nc21 [Compound 115, 1-Cyclohexyl-N-(4-(2-(((1r,4r)-4-(dimethylamino)cyclohexyl)amino)-8-isopropyl-7-oxo-7,8-dihydropyrido[2,3-d]pyrimidin-6-yl)-2-fluorophenyl)methanesulfonamide]
0.25 nM	CC(C)n1c(=O)c(-c2cc(F)c(NS(=O)(=O)Cc3ccc(Cl)cc3)c(F)c2)cc2cnc(N[C@H]3CC[C@H](N(C)C)CC3)nc21 [Compound 116, 1-(4-Chlorophenyl)-N-(4-(2-(((1r,4r)-4-(dimethylamino)cyclohexyl)amino)-8-isopropyl-7-oxo-7,8-dihydropyrido[2,3-d]pyrimidin-6-yl)-2,6-difluorophenyl)methanesulfonamide]
0.18 nM	CC(C)n1c(=O)c(-c2cc(F)c(NS(=O)(=O)Cc3ccccc3)c(F)c2)cc2cnc(N[C@H]3CC[C@H](N(C)C)CC3)nc21 [Compound 117, N-(4-(2-(((1r,4r)-4-(Dimethylamino)cyclohexyl)amino)-8-isopropyl-7-oxo-7,8-dihydropyrido[2,3-d]pyrimidin-6-yl)-2,6-difluorophenyl)-1-phenylmethanesulfonamide]
1.7 nM	Cc1ccc(CS(=O)(=O)Nc2c(F)cc(-c3cc4cnc(N[C@H]5CC[C@H](N(C)C)CC5)nc4n(C(C)C)c3=O)cc2F)cc1 [Compound 120, N-(4-(2-(((1r,4r)-4-(Dimethylamino)cyclohexyl)amino)-8-isopropyl-7-oxo-7,8-dihydropyrido[2,3-d]pyrimidin-6-yl)-2,6-difluorophenyl)-1-(p-tolyl)methanesulfonamide]
0.12 nM	COCCN(C)[C@H]1CC[C@H](Nc2ncc3cc(-c4cc(F)c(NS(=O)(=O)Cc5ccc(F)cc5)c(F)c4)c(=O)n(C(C)C)c3n2)CC1 [Compound 122, N-(2,6-Difluoro-4-(8-isopropyl-2-(((1r,4r)-4-((2-methoxyethyl)(methyl)amino)cyclohexyl)amino)-7-oxo-7,8-dihydropyrido[2,3-d]pyrimidin-6-yl)phenyl)-1-(4-fluorophenyl)methanesulfonamide]
0.05 nM	COCCN(C)[C@H]1CC[C@H](Nc2ncc3cc(-c4ccc(NS(=O)(=O)Cc5ccc(F)cc5)c(F)c4)c(=O)n(C(C)C)c3n2)CC1 [Compound 123, N-(2-Fluoro-4-(8-isopropyl-2-(((1r,4r)-4-((2-methoxyethyl)(methyl)amino)cyclohexyl)amino)-7-oxo-7,8-dihydropyrido[2,3-d]pyrimidin-6-yl)phenyl)-1-(4-fluorophenyl)methanesulfonamide]
0.12 nM	COCCN(C)[C@H]1CC[C@H](Nc2ncc3cc(-c4ccc(NS(=O)(=O)Cc5ccccc5)c(F)c4)c(=O)n(C(C)C)c3n2)CC1 [Compound 124, N-(2-Fluoro-4-(8-isopropyl-2-(((1r,4r)-4-((2-methoxyethyl)(methyl)amino)cyclohexyl)amino)-7-oxo-7,8-dihydropyrido[2,3-d]pyrimidin-6-yl)phenyl)-1-phenylmethanesulfonamide hydrochloride]
0.19 nM	CC(C)n1c(=O)c(-c2cc(F)c(NS(=O)(=O)Cc3ccc(C(F)F)cc3)c(F)c2)cc2cnc(N[C@H]3CC[C@H](N(C)C)CC3)nc21 [Compound 125, 1-(4-(Difluoromethyl)phenyl)-N-(4-(2-(((1r,4r)-4-(dimethylamino)cyclohexyl)amino)-8-isopropyl-7-oxo-7,8-dihydropyrido[2,3-d]pyrimidin-6-yl)-2,6-difluorophenyl)methanesulfonamide]
0.24 nM	COCCN(C)[C@H]1CC[C@H](Nc2ncc3cc(-c4ccc(NS(=O)(=O)CCC(F)(F)F)nc4)c(=O)n(C(C)C)c3n2)CC1 [Compound 126, 3,3,3-Trifluoro-N-(5-(8-isopropyl-2-(((1r,4r)-4-((2-methoxyethyl)(methyl)amino)cyclohexyl)amino)-7-oxo-7,8-dihydropyrido[2,3-d]pyrimidin-6-yl)pyridin-2-yl)propane-1-sulfonamide]
0.11 nM	CC(C)n1c(=O)c(-c2cc(F)c(NS(=O)(=O)Cc3ccc(F)cc3)cc2F)cc2cnc(N[C@H]3CC[C@H](N(C)C)CC3)nc21 [Compound 127, N-(4-(2-(((1r,4r)-4-(Dimethylamino)cyclohexyl)amino)-8-isopropyl-7-oxo-7,8-dihydropyrido[2,3-d]pyrimidin-6-yl)-2,5-difluorophenyl)-1-(4-fluorophenyl)methanesulfonamide]

Further lines, the compound ahead of its results:

SMILES	IC50
COc1ccc(Cl)cc1CS(=O)(=O)Nc1c(F)cc(-c2cc3cnc(N[C@@H]4CNC[C@@H](F)C4)nc3n(C(C)C)c2=O)c(F)c1F [Compound 97, 1-(5-Chloro-2-methoxyphenyl)-N-(2,3,6-trifluoro-4-(2-(((3S,5S)-5-fluoropiperidin-3-yl)amino)-8-isopropyl-7-oxo-7,8-dihydropyrido[2,3-d]pyrimidin-6-yl)phenyl)methanesulfonamide hydrochloride]	0.27 nM
CC(C)n1c(=O)c(-c2cc(F)c(NCC(O)C(F)(F)F)c(F)c2F)cc2cnc(N[C@H]3CC[C@H](N(C)C)CC3)nc21 (some centres unmarked) [Compound 99, 2-(((1r,4r)-4-(Dimethylamino)cyclohexyl)amino)-8-isopropyl-6-(2,3,5-trifluoro-4-((3,3,3-trifluoro-2-hydroxypropyl)amino)phenyl)pyrido[2,3-d]pyrimidin-7(8H)-one]	46 nM
CC(C)n1c(=O)c(-c2cc(F)c(NCC(O)C(F)(F)F)c(F)c2F)cc2cnc(N[C@H]3CC[C@H](N(C)C)CC3)nc21 (some centres unmarked) [Compound 99A, 2-(((1r,4r)-4-(Dimethylamino)cyclohexyl)amino)-8-isopropyl-6-(2,3,5-trifluoro-4-((3,3,3-trifluoro-2-hydroxypropyl)amino)phenyl)pyrido[2,3-d]pyrimidin-7(8H)-one]	68 nM
CC(C)n1c(=O)c(-c2ccc(NS(=O)(=O)CCC(F)(F)F)c(F)c2)cc2cnc(N[C@H]3CCC[C@H](N)C3)nc21 [Compound 103, N-(4-(2-(((1S,3S)-3-Aminocyclohexyl)amino)-8-isopropyl-7-oxo-7,8-dihydropyrido[2,3-d]pyrimidin-6-yl)-2-fluorophenyl)-3,3,3-trifluoropropane-1-sulfonamide]	26 nM
CC(C)n1c(=O)c(-c2ccc(NS(=O)(=O)CCC(F)(F)F)c(F)c2)cc2cnc(N[C@H]3CCC[C@H](N(C)C)C3)nc21 [Compound 104, hydrochloride]	72 nM
CC(C)n1c(=O)c(-c2ccc(NS(=O)(=O)c3ccccc3Cl)nc2)cc2cnc(N[C@H]3CC[C@H](N(C)C)CC3)nc21 [Compound 105, 2-Chloro-N-(5-(2-(((1r,4r)-4-(dimethylamino)cyclohexyl)amino)-8-isopropyl-7-oxo-7,8-dihydropyrido[2,3-d]pyrimidin-6-yl)pyridin-2-yl)benzenesulfonamide]	0.16 nM
CC(C)n1c(=O)c(-c2ccc(NS(=O)(=O)c3ccccc3)nc2)cc2cnc(N[C@H]3CC[C@H](N(C)C)CC3)nc21 [Compound 106, N-(5-(2-(((1r,4r)-4-(Dimethylamino)cyclohexyl)amino)-8-isopropyl-7-oxo-7,8-dihydropyrido[2,3-d]pyrimidin-6-yl)pyridin-2-yl)benzenesulfonamide]	0.15 nM
Cc1ccc(CS(=O)(=O)Nc2c(F)cc(-c3cc4cnc(N[C@@H]5CNC[C@@H](F)C5)nc4n(C(C)C)c3=O)c(F)c2F)c(C#N)c1 [Compound 107, 1-(2-Cyano-4-methylphenyl)-N-(2,3,6-trifluoro-4-(2-(((3S,5S)-5-fluoropiperidin-3-yl)amino)-8-isopropyl-7-oxo-7,8-dihydropyrido[2,3-d]pyrimidin-6-yl)phenyl)methanesulfonamide]	0.13 nM
CC(C)n1c(=O)c(-c2ccc(NS(=O)(=O)CCC(F)(F)F)c(F)c2)cc2cnc(N[C@H]3CCC[C@@H](N)C3)nc21 [Compound 108, N-(4-(2-(((1S,3R)-3-Aminocyclohexyl)amino)-8-isopropyl-7-oxo-7,8-dihydropyrido[2,3-d]pyrimidin-6-yl)-2-fluorophenyl)-3,3,3-trifluoropropane-1-sulfonamide hydrochloride]	23 nM
CC(C)n1c(=O)c(-c2ccc(NS(=O)(=O)CC3CCCC3)c(F)c2)cc2cnc(N[C@H]3CC[C@H](N(C)C)CC3)nc21 [Compound 109, 1-Cyclopentyl-N-(4-(2-(((1r,4r)-4-(dimethylamino)cyclohexyl)amino)-8-isopropyl-7-oxo-7,8-dihydropyrido[2,3-d]pyrimidin-6-yl)-2-fluorophenyl)methanesulfonamide]	0.13 nM
CC(C)n1c(=O)c(-c2ccc(NS(=O)(=O)Cc3ccc(F)cc3)c(F)c2)cc2cnc(N[C@@H]3CNC[C@@H](F)C3)nc21 [Compound 112, N-(2-Fluoro-4-(2-(((3S,5S)-5-fluoropiperidin-3-yl)amino)-8-isopropyl-7-oxo-7,8-dihydropyrido[2,3-d]pyrimidin-6-yl)phenyl)-1-(4-fluorophenyl)methanesulfonamide hydrochloride]	0.13 nM
Cc1ccc(CS(=O)(=O)Nc2c(F)cc(-c3cc4cnc(N[C@H]5CC[C@H](N(C)C)CC5)nc4n(C(C)C)c3=O)c(F)c2F)c(C#N)c1 [Compound 113, 1-(2-Cyano-4-methylphenyl)-N-(4-(2-(((1r,4r)-4-(dimethylamino)cyclohexyl)amino)-8-isopropyl-7-oxo-7,8-dihydropyrido[2,3-d]pyrimidin-6-yl)-2,3,6-trifluorophenyl)methanesulfonamide]	0.22 nM
